From US20100298302A1, “NOVEL PROTEIN KINASE MODULATORS” (priority 2009, published 2010)
Where two headings read alike, the source gives them in different places.

Key:
[1] = test system: MV-4-11; experiment: Alamar Blue cell proliferation assay, MV-4-11; format: cell-based; conditions: Homo sapiens, MV4-11
Procedure: (§1) A representative cell-proliferation assay protocol using Alamar Blue dye (stored at 4° C., use 20 ul per well) is described hereafter.
(§2) a. Split and trypsinize cells.
(§3) b. Count cells using hemocytometer.
(§4) c. Plate 4,000-5,000 cells per well in 100 μl of medium and seed into a 96-well plate according to the following plate layout. Add cell culture medium only to wells B10 to B12. Wells B1 to B9 have cells but no compound added.
(§5) d. Add 100 μl of 2× drug dilution to each well in a concentration shown in the plate layout above. At the same time, add 100 μl of media into the control wells (wells B10 to B12). Total volume is 200 μl/well.
(§6) e. Incubate four (4) days at 37° C., 5% CO2 in a humidified incubator.
(§7) f. Add 20 μl Alamar Blue reagent to each well.
(§8) g. Incubate for four (4) hours at 37° C., 5% CO2 in a humidified incubator.
(§9) h. Record fluorescence at an excitation wavelength of 544 nm and emission wavelength of 590 nm using a microplate reader.
(§10) In the assays, cells are cultured with a test compound for approximately four days, the dye is then added to the cells and fluorescence of […] dye is detected after approximately four hours. Different types of cells can be utilized in the assays (e.g., HCT-116 human colorectal carcinoma cells, PC-3 human prostatic cancer cells, MDA-MB231 human breast cancer cells, K-562 human chronic myelogenous leukemia (CML) cells, MiaPaca human pancreatic carcinoma cells, MV-4 human acute myeloid leukemia cells, and BxPC3 human pancreatic adenocarcinoma cells).

[2] = test system: K-562 human chronic myelogenous leukemia (CML) cells; experiment: Alamar Blue cell proliferation assay, K-562; format: cell-based
Procedure: as §1, §2, §3, §4, §5, §6, §7, §8, §9, §10

[3] = target: recombinant PIM-1 (Homo sapiens, UniProt P11309); experiment: PIM-1 kinase assay; format: biochemical; conditions: for inhibition at 0.5 µM: 500 nM compound, read-out: PIM1: % inh 500 nM
Procedure: The following procedure was used to assay the PIM-1 kinase activity of compounds of the invention. Other methods for assaying PIM-1 and other PIM kinases, as well as methods to assay for activity against various kinases known in the art.
In a final reaction volume of 50 ul, recombinant PIM-1 (1 ng) was incubated with 12 mM MOPS pH 7.0, 0.4 mM EDTA, glycerol 1%, brij 35 0.002%, 2-mercaptoethanol 0.02%, BSA 0.2 mg/ml, 100 uM KKRNRTLTK, 10 mM MgAcetate, 15 uM ATP, [γ-^33P-ATP] (specific activity approx. 500 cpm/pmol), DMSO 4% and test inhibitor compound at the required concentration. The reaction was initiated by the addition of the Magnesium ATP mixture. After 40 min incubation at 23° C., the reactions were quenched by the addition of 100 ul 0.75% Phosphoric acid, and the labeled peptide collected by filtration through a phosphocellulose filter plate. The plate was washed 4 times with 0.075% phosphoric acid (100 ul per well) and then, after the addition of scintillation fluid (20 ul per well), the counts were measured by a scintillation counter.

[4] = test system: MiaPaca human pancreatic carcinoma cells; experiment: Alamar Blue cell proliferation assay, MiaPaCa; format: cell-based; conditions: MIA PaCa-2
Procedure: as §1, §2, §3, §4, §5, §6, §7, §8, §9, §10

[5] = test system: BxPC3 human pancreatic adenocarcinoma cells; experiment: Alamar Blue cell proliferation assay, BxPC3; format: cell-based; conditions: BXPC-3
Procedure: as §1, §2, §3, §4, §5, §6, §7, §8, §9, §10

[6] = test system: MDA-MB45; experiment: Alamar Blue cell proliferation assay, MDA-MB45; format: cell-based
Procedure: as §1, §2, §3, §4, §5, §6, §7, §8, §9, §10

[7] = target: T1, recombinant human CK2 (Homo sapiens, UniProt P68400); experiment: cell-free CK2 assay; format: biochemical
T1 construct: purchased Upstate
Procedure: Modulatory activity of compounds described herein was assessed in vitro in cell-free CK2 assays by the following method.
Test compounds in aqueous solution were added at a volume of 10 microliters, to a reaction mixture comprising 10 microliters Assay Dilution Buffer (ADB; 20 mM MOPS, pH 7.2, 25 mM beta-glycerolphosphate, 5 mM EGTA, 1 mM sodium orthovanadate and 1 mM dithiothreitol), 10 microliters of substrate peptide (RRRDDDSDDD, dissolved in ADB at a concentration of 1 mM), 10 microliters of recombinant human CK2 (25 ng dissolved in ADB; Upstate). Reactions were initiated by the addition of 10 microliters of ATP Solution (90% 75 mM MgCl2, 75 micromolar ATP dissolved in ADB; 10% [γ-^33P]ATP (stock 1 mCi/100 μl; 3000 Ci/mmol (Perkin Elmer) and maintained for 10 minutes at 30 degrees C. The reactions were quenched with 100 microliters of 0.75% phosphoric acid, then transferred to and filtered through a phosphocellulose filter plate (Millipore). After washing each well 5 times with 0.75% phosphoric acid, the plate was dried under vacuum for 5 min and, following the addition of 15 ul of scintilation fluid to each well, the residual radioactivity was measured using a Wallac luminescence counter.

[8] = test system: SUM-149PT; experiment: Alamar Blue cell proliferation assay, SUM-149PT; format: cell-based; conditions: Homo sapiens, SUM149PT
Procedure: as §1, §2, §3, §4, §5, §6, §7, §8, §9, §10

[9] = target: recombinant human PIM2 (Homo sapiens, UniProt Q9P1W9); experiment: PIM-2 kinase assay; format: biochemical
Procedure: Test compounds dissolved and diluted in DMSO (2 μl) were added to a reaction mixture comprising 10 μl of 5× Reaction Buffer (40 mM MOPS pH 7.0, 5 mM EDTA), 10 μl of recombinant human PIM2 solution (4 ng PIM-2 dissolved in dilution buffer (20 mM MOPS pH 7.0; EDTA 1 mM; 5% Glycerol; 0.01% Brij 35; […]; […] 2-mercaptoethanol; 1 mg/ml BSA)) and 8 ul of water. Reactions were initiated by the addition of 10 ul of ATP Solution ([…] (15 mM MgCl2; 75 uM ATP) 1% ([γ-33P]ATP: Stock 1 mCi/100 μl; 3000 Ci/mmol (Perkin Elmer)) and 10 ul of substrate peptide solution (RSRSSYPAGT, dissolved in water at a concentration of 1 mM), Reactions were maintained for 10 min at 30° C. The reactions were quenched with 100 ul of 0.75% Phosphoric acid, then transferred to and filtered through a Phosphocellulose filter plate (Millipore, MSPH-N6B-50). After washing each well 4 times with 0.75% Phosphoric acid, scintillation fluid (20 uL) was added to each well and the residual radioactivity was measured using a Wallac luminescence counter.

[10] = test system: PC-3 human prostatic cancer cells; experiment: Alamar Blue cell proliferation assay, PC3; format: cell-based
Procedure: as §1, §2, §3, §4, §5, §6, §7, §8, §9, §10

[11] = 15 μM ATP, read-out: PIM1: IC50 (15 μM ATP)

Chain of recombinant PIM-1 (P11309 whole entry): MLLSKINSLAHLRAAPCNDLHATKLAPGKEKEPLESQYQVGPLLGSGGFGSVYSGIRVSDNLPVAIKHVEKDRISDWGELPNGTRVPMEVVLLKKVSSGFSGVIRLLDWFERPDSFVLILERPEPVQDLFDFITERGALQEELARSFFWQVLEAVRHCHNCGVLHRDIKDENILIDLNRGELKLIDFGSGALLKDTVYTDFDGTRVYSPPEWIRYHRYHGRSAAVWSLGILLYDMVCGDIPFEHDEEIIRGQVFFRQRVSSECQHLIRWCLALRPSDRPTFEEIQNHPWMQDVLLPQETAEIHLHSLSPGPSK
T1 sequence (P68400 whole entry): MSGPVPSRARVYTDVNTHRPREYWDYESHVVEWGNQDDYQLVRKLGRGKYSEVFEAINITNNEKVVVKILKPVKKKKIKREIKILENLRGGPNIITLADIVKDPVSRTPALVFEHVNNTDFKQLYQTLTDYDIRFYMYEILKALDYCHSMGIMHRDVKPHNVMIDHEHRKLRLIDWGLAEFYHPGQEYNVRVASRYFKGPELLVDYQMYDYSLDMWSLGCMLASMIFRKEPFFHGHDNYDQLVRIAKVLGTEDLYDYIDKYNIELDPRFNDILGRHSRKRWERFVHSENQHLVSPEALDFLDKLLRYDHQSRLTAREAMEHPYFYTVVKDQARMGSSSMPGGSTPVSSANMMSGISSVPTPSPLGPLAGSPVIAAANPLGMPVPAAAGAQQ
T1 sequence (P67870 whole entry partner): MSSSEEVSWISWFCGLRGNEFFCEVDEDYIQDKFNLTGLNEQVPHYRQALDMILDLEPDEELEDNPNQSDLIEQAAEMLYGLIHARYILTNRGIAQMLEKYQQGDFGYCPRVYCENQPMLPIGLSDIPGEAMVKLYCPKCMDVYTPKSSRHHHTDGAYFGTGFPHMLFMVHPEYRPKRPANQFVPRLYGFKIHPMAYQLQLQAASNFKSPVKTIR
Chain of recombinant human PIM2 (Q9P1W9 whole entry): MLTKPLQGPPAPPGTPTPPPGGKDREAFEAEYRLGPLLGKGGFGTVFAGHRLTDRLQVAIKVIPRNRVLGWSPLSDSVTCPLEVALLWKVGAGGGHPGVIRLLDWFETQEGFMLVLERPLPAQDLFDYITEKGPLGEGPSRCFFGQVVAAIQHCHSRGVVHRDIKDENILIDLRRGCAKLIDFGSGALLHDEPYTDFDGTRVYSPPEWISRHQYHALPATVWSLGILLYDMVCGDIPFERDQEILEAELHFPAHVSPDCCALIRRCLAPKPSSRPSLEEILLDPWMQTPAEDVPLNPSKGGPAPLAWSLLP

Row | Structure (SMILES) | IC50 ([1]; Table 4) [µM] | IC50 ([2]; K562, Table 4) [µM] | inhibition at 0.5 µM [3] [%] | IC50 [3, 11] [µM] | IC50 [4] [µM] | IC50 [5] [µM] | IC50 ([1]; Table 5) [µM] | IC50 [6] [µM] | IC50 ([2]; K562, Table 5) [µM] | IC50 ([3]; Table 5, read-out: PIM1 IC50) [µM] | IC50 [7] [µM] | IC50 [8] [µM] | IC50 [9] [µM] | IC50 [10] [µM]
1 | O=C(O)c1ccc2c(c1)nc(Nc1ccc3ncccc3c1)c1cccn12 | > 10 | > 10 | 43.2 | 0.239 | > 10 |  |  |  |  |  |  |  |  | 
2 | Clc1cccc(Nc2nc3c(-c4nnc[nH]4)cccc3n3cccc23)c1 |  |  |  |  |  | ≥ 30 | < 5 | 16 | > 10 | < 0.1 | < 0.1 | 21 | < 0.1 | 
3 | N#Cc1cccc(Nc2nc3cc(C(=O)O)ccc3n3cccc23)c1 | > 10 | > 10 | 92.3 | 0.115 | > 10 |  |  |  |  |  |  |  |  | > 10
4 | O=C(O)c1ccc2c(c1)nc(Nc1cccc(Cl)c1)c1cccn12 | 2.93 | > 10 | 95.4 | 0.095 | 8.92 |  |  |  |  |  |  |  |  | > 10
5 | Fc1cccc(Nc2nc3cc(-c4nnn[nH]4)ccc3n3cccc23)c1 | > 10 | > 10 | 70 | 0.29 | > 10 |  |  |  |  |  |  |  |  | > 10
6 | CN(c1ccccc1F)c1nc2cc(-c3nnn[nH]3)ccc2n2cccc12 | > 10 | > 10 | 51.4 | 0.774 | > 10 |  |  |  |  |  |  |  |  | > 10
7 | COc1cccc(Nc2nc3cc(C(=O)O)ccc3n3cccc23)c1 | > 10 | > 10 | 79 | 0.354 | > 10 |  |  |  |  |  |  |  |  | > 10
8 | Clc1cccc(Nc2nc3cc(-c4nnn[nH]4)ccc3n3cccc23)c1 | 4.98 | > 10 | 77.4 | 0.15 | 9.37 |  |  |  |  |  |  |  |  | > 10
9 | Clc1cccc(-c2nc3cc(-c4nnn[nH]4)ccc3n3cccc23)c1 | > 10 | > 10 | 25 |  | > 10 |  |  |  |  |  |  |  |  | > 10
10 | NC(=O)c1cc(F)cc(Nc2nc3cc(C(=O)O)ccc3n3cccc23)c1 | > 10 | > 10 | 69.3 | 0.229 | > 10 |  |  |  |  |  |  |  |  | 
11 | CN(c1cccc(Cl)c1)c1nc2cc(C(=O)O)ccc2n2cccc12 | > 10 | > 10 | 49.7 |  | > 10 |  |  |  |  |  |  |  |  | > 10
12 | O=C(O)c1ccc2c(c1)nc(Nc1cccc(F)c1)c1cccn12 | > 10 | > 10 | 78.1 | 0.156 | > 10 |  |  |  |  |  |  |  |  | > 10
13 | N#Cc1ccc2c(c1)nc(NCCN1CCCC1)c1cccn12 | 3 | 5.52 | 10.3 |  | 1.24 |  |  |  |  |  |  |  |  | 9.65
14 | Fc1ccccc1Nc1nc2c(-c3nnc[nH]3)cccc2n2cncc12 |  |  |  |  |  | 15.1 | < 1 | < 5 | < 10 |  | < 0.1 | < 10 | < 0.1 | 
